Measurements: patent publication US10087188B2, “Benzamide imidazopyrazine Btk inhibitors” (MERCK SHARP & DOHME CORP., priority 2014, dated 2018)
Where two headings read alike, the source gives them in different places.

Experiments:
[1] = test system: HeLa cells; test: [3H] Adenosine uptake assay; assay type: cell-based; details: accumulation of tritiated adenosine into HeLa cells, compound concentration range 10 μM to 0.032 nM, read-out: ADU inhibition IC50 (adenosine uptake inhibition potency)
Method in brief: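 Accumulation of tritiated adenosine in adherent HeLa cells, detected by scintillant-plate coincidence counting, gives IC50 via 4-parameter robust fit. Compound (constant 0.25% DMSO) applied 30 min ahead, then 60 min radiolabel exposure (added from 500 nM solution), ambient conditions, HBSS with 5% FBS.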

[2] = target: BTK enzyme (recombinant full-length BTK, hBTK) (Homo sapiens (Human), UniProt Q06187); test: Btk enzyme activity assay, LANCE TR-FRET; assay type: biochemical; details: 50 pM hBTK, 2 μM biotin-A5-peptide, 25 μM ATP; 60 minute compound & enzyme incubation; read-out: BTK binding IC50
Method: Btk Enzyme Activity Assay Methods
BTK enzymatic activity was determined with the LANCE (Lanthanide Chelate Excite) TR-FRET (Time-resolved fluorescence resonance energy transfer) assay. […] After 60 minutes incubation with detection reagents, reaction plates were read on a PerkinElmer EnVision plate reader using standard TR-FRET protocol.

Chain of BTK enzyme (recombinant full-length BTK, hBTK) (Q06187 whole entry): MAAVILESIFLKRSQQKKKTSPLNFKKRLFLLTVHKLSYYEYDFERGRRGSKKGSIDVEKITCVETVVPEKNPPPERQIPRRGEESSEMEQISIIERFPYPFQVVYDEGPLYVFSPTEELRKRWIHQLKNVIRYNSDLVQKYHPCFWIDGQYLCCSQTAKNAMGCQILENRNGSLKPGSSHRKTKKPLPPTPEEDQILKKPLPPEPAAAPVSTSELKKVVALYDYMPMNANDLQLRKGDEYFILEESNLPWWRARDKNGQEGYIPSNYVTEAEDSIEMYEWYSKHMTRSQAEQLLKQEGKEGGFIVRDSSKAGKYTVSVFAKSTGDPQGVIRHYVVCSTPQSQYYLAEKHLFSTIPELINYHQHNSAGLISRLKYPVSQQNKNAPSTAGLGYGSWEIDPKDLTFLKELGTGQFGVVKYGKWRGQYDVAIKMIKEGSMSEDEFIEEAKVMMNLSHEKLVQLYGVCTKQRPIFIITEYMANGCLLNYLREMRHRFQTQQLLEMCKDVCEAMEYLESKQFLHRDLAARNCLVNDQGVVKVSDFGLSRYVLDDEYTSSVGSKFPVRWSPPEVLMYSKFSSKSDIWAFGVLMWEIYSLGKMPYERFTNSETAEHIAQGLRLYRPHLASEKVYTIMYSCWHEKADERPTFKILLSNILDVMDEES

SMILES | IC50 ([1]; Homo sapiens, HeLa) [µM] | IC50 [2] [µM] | IC50 [1] [µM]
CC(C)[C@@]1(C(=O)O)CC[C@H](N2C[C@H](c3nc(-c4ccc(C(=O)Nc5cc(C(F)(F)F)ccn5)cc4F)c4c(N)ncc(Cl)n34)OC[C@@H]2C)C1 [Example 203, (1R,3S)-3-{(2R,5S)-2-[8-amino-5-chloro-1-(2-fluoro-4-{[4-(trifluoromethyl)pyridin-2-yl]carbamoyl}phenyl)imidazo [1,5-a]pyrazin-3-yl]-5-methylmorpholin-4-yl}-1-(1-methylethyl) cyclopentanecarboxylic acid] | 0.891 | 0.0019 | 
Nc1nccn2c(C34CCC(C(=O)O)(CC3)CC4)nc(-c3ccc(C(=O)Nc4cc(C(F)(F)F)ccn4)cc3F)c12 [Example 170, 4-[8-amino-1-(2-fluoro-4-{[4-(trifluoromethyl)pyridin-2-yl]carbamoyl}phenyl)imidazo[1,5-a]pyrazin-3-yl]bicyclo[2.2.2] octane-1-carboxylic acid] | 0.623 | 0.00016 | 
CCOc1cc(C(=O)Nc2cc(C(F)(F)F)ccn2)ccc1-c1nc(C2CC3(CC(C(=O)O)C3)C2)n2ccnc(N)c12 (centres unmarked) [Example 93, 6-[8-amino-1-(2-ethoxy-4-{[4-(trifluoromethyl)pyridin-2-yl]carbamoyl}phenyl)imidazo[1,5-a]pyrazin-3-yl]spiro[3.3]heptane-2-carboxylic acid] | 4.64 | 0.00051 | 
C[C@@]1(C(=O)O)CC[C@@](C)(c2nc(-c3ccc(C(=O)Nc4cc(C(F)(F)F)ccn4)cc3)c3c(N)nccn23)C1 [Example 79, (1R,3R)-3-[8-amino-1-(4-{[4-(trifluoromethyl)pyridin-2-yl]carbamoyl}phenyl)imidazo[1,5-a]pyrazin-3-yl]-1,3-dimethylcyclopentane carboxylic acid] | 1.59 | 0.00073 | 
Nc1nccn2c(-c3ccc(C(=O)O)o3)nc(-c3ccc(C(=O)Nc4cc(C(F)(F)F)ccn4)cc3)c12 [Example 28, 5-[8-amino-1-(4-{[4-(trifluoromethyl)pyridin-2-yl]carbamoyl}phenyl)imidazo[1,5-a]pyrazin-3-yl]furan-2-carboxylic acid] | 10 | 0.0024 | 
CCOc1cc(C(=O)Nc2cc(C(F)(F)F)ccn2)ccc1-c1nc([C@]23CC[C@](C(=O)O)(CC2O)C(O)C3)n2ccnc(N)c12 (stereo partly drawn) [Example 73, (1S,4R)-4-[8-amino-1-(2-ethoxy-4-{[4-(trifluoromethyl)pyridin-2-yl]carbamoyl}phenyl)imidazo[1,5-a]pyrazin-3-yl]-2,5-dihydroxybicyclo [2.2.2]octane-1-carboxylic acid] | 3.65 | 0.0088 | 
Nc1nccn2c(C34CCC(C(=O)O)(CC3)C4)nc(-c3ccc(C(=O)Nc4cc(C(F)(F)F)ccn4)cc3)c12 [Example 65, 4-[8-amino-1-(4-{[4-(trifluoromethyl)pyridin-2-yl]carbamoyl}phenyl)imidazo[1,5-a]pyrazin-3-yl]bicyclo[2.2.1] heptane-1-carboxylic acid] | 6.06 | 0.0006 | 
CC(C)C1(C(=O)O)CCC(C)(c2nc(-c3ccc(C(=O)Nc4cc(C(F)(F)F)ccn4)cc3)c3c(N)nccn23)C1 (centres unmarked) [Example 144, 3-[8-amino-1-(4-{[4-(trifluoromethyl)pyridin-2-yl]carbamoyl}phenyl)imidazo[1,5-a]pyrazin-3-yl]-3-methyl-1-(1-methylethyl) cyclopentane-carboxylic acid] |  | 0.0025 | 3.01
C[C@]1(C(=O)O)CC[C@H](N2CCO[C@@H](c3nc(-c4ccc(C(=O)Nc5ccccn5)cc4)c4c(N)ncc(Cl)n34)C2)CC1 [Example 204, trans-4-[(2R)-2-{8-amino-5-chloro-1-[4-(pyridin-2-ylcarbamoyl)phenyl]imidazo [1,5-a]pyrazin-3-yl}morpholin-4-yl]-1-methylcyclohexanecarboxylic acid] | 3.87 | 0.0038 | 
CC1(C)[C@H](C(=O)O)CC[C@@]1(C)c1nc(-c2ccc(C(=O)Nc3cc(C(F)(F)F)ccn3)cc2)c2c(N)nccn12 [Example 148, (1R,3R)-3-[8-amino-1-(4-{[4-(trifluoromethyl)pyridin-2-yl]carbamoyl}phenyl)imidazo[1,5-a]pyrazin-3-yl]-2,2,3-trimethylcyclopentane carboxylic acid] | 10 | 0.0072 | 
C[C@H]1CO[C@@H](c2nc(-c3ccc(C(=O)Nc4cc(C(F)(F)F)ccn4)cc3F)c3c(N)ncc(Cl)n23)CN1[C@H]1CC[C@@](C)(C(=O)O)CC1 [Example 201, cis-4-{(2R,5S)-2-[8-amino-5-chloro-1-(2-fluoro-4-{[4-(trifluoromethyl)pyridin-2-yl]carbamoyl}phenyl)imidazo [1,5-a]pyrazin-3-yl]-5-methylmorpholin-4-yl}-1-methylcyclohexanecarboxylic acid] | 4.06 | 0.0017 | 
COc1cc(C(=O)Nc2cc(C(F)(F)F)ccn2)ccc1-c1nc(C2CCC(C)(C(=O)O)CC2)n2c(Cl)cnc(N)c12 (centres unmarked) [Example 166, 4-[8-amino-5-chloro-1-(2-methoxy-4-{[4-(trifluoromethyl)pyridin-2-yl]carbamoyl}phenyl)imidazo[1,5-a]pyrazin-3-yl]-1-methylcyclohexane-carboxylic acid] | 10 | 0.0043 | 
Nc1nccn2c(C34CCC(C(=O)O)(CC3)CC4)nc(-c3ccc(C(=O)Nc4cc(C5CC5)ccn4)cc3)c12 [Example 169, 4-(8-amino-1-{4-[(4-cyclopropylpyridin-2-yl)carbamoyl]phenyl}imidazo[1,5-a]pyrazin-3-yl)bicyclo[2.2.2] octane-1-carboxylic acid] | 0.276 | 0.00019 | 
CC(C)[C@]1(C(=O)O)CC[C@@H](c2nc(-c3ccc(C(=O)Nc4cc(C(F)(F)F)ccn4)cc3)c3c(N)ncc(Cl)n23)C1 [Example 106, (1S.3R)-3-[8-amino-5-chloro-1-(4-{[4-(trifluoromethyl)pyridin-2-yl]carbamoyl}phenyl)imidazo[1,5-a]pyrazin-3-yl]-1-(1-methylethyl) cyclopentane-carboxylic acid] | 0.781 | 0.00074 | 
CC1(C(=O)O)CCC(c2nc(-c3ccc(C(=O)Nc4cc(C(F)(F)F)ccn4)cc3)c3c(N)ncc(Cl)n23)CC1 (centres unmarked) [Example 162, 4-[8-amino-5-chloro-1-(4-{[4-(trifluoromethyl)pyridin-2-yl]carbamoyl}phenyl)imidazo[1,5-a]pyrazin-3-yl]-1-methylcyclohexane-carboxylic acid] | 5.54 | 0.0023 | 
CCOc1cc(C(=O)Nc2cc(C(F)(F)F)ccn2)ccc1-c1nc([C@@H]2CC[C@@H](C(=O)O)O2)n2ccnc(N)c12 [Example 116, (2S,5S)-5-[8-amino-1-(2-ethoxy-4-{[4-(trifluoromethyl)pyridin-2-yl]carbamoyl}phenyl)imidazo[1,5-a]pyrazin-3-yl]tetrahydrofuran-2-carboxylic acid] |  | 0.022 | 1.14
CC1(C(=O)O)CCC(c2nc(-c3ccc(C(=O)Nc4cc(C(F)(F)F)ccn4)cc3F)c3c(N)ncc(Cl)n23)CC1 (centres unmarked) [Example 163, 4-[8-amino-5-chloro-1-(2-fluoro-4-{[4-(trifluoromethyl)pyridin-2-yl]carbamoyl}phenyl)imidazo[1,5-a]pyrazin-3-yl]-1-methylcyclohexane-carboxylic acid] | 6.76 | 0.0019 | 
Nc1nccn2c([C@H]3CC[C@@H](C(=O)N4CCC[C@H]4C(=O)O)C3)nc(-c3ccc(C(=O)Nc4cc(C(F)(F)F)ccn4)cc3)c12 [Example 17, 1-({(1R,3S)-3-[8-amino-1-(4-{[4-(trifluoromethyl)pyridin-2-yl]carbamoyl}phenyl)imidazo[1,5-a]pyrazin-3-yl]cyclopentyl}carbonyl)-L-proline] | 10 | 0.0019 | 
COc1cc(C(=O)Nc2cc(C(F)(F)F)ccn2)ccc1-c1nc(C23CCC(C(=O)O)(CC2)CC3)n2ccnc(N)c12 [Example 171, 4-[8-amino-1-(2-methoxy-4-{[4-(trifluoromethyl)pyridin-2-yl]carbamoyl}phenyl)imidazo[1,5-a]pyrazin-3-yl]bicyclo[2.2.2] octane-1-carboxylic acid] | 6.88 | 0.00029 | 
Nc1nccn2c([C@H]3CC[C@@H](C(=O)N4CCC[C@@H]4C(=O)O)C3)nc(-c3ccc(C(=O)Nc4cc(C(F)(F)F)ccn4)cc3)c12 [Example 18, 1-({(1R,3S)-3-[8-amino-1-(4-{[4-(trifluoromethyl)pyridin-2-yl]carbamoyl}phenyl)imidazo[1,5-a]pyrazin-3-yl]cyclopentyl}carbonyl)-D-proline] | 10 | 0.0026 | 
CCOc1cc(C(=O)Nc2cc(C(F)(F)F)ccn2)ccc1-c1nc([C@@H]2CC[C@](C)(C(=O)O)C2(C)C)n2ccnc(N)c12 [Example 84, (1S,3R)-3-[8-amino-1-(2-ethoxy-4-{[4-(trifluoromethyl)pyridin-2-yl]carbamoyl}phenyl)imidazo[1,5-a]pyrazin-3-yl]-1,2,2-trimethylcyclopentane carboxylic acid] | 7.35 | 0.00045 | 
Nc1nccn2c([C@@H]3CCC[C@H](C(=O)O)C3)nc(-c3ccc(C(=O)Nc4cc(C(F)(F)F)ccn4)cc3F)c12 [Example 10, (1S,3R)-3-[8-amino-1-(2-fluoro-4-{[4-(trifluoromethyl)pyridin-2-yl]carbamoyl}phenyl)imidazo [1,5-a]pyrazin-3-yl]cyclohexane-carboxylic acid] | 10 | 0.00039 | 
